Laboratory results: patent US5849695A, “Parathyroid hormone analogues useful for treatment of osteoporosis and disorders of calcium meatabolism in mammals” (The Regents of the University of California, priority 1993, dated 1998)
Read-outs that look alike come from different tables or passages of the source.

Columns and labels:
[1] = biological target: T1, PTH receptor (Canis lupus familiaris, UniProt Q9TU31); type: biochemical, canine; conditions: for RENAL MEMBRANES Canine Activity (AC*): maximally effective dose; for antagonism of PTH-stimulated adenylate cyclase: canine renal plasma membranes and UMR 106-H5 cells (FIG. 8)
T1 construct: canine renal plasma membranes; from tissue; host or cells: canine kidney (renal plasma membranes)
T1 sequence (Q9TU31 29-595): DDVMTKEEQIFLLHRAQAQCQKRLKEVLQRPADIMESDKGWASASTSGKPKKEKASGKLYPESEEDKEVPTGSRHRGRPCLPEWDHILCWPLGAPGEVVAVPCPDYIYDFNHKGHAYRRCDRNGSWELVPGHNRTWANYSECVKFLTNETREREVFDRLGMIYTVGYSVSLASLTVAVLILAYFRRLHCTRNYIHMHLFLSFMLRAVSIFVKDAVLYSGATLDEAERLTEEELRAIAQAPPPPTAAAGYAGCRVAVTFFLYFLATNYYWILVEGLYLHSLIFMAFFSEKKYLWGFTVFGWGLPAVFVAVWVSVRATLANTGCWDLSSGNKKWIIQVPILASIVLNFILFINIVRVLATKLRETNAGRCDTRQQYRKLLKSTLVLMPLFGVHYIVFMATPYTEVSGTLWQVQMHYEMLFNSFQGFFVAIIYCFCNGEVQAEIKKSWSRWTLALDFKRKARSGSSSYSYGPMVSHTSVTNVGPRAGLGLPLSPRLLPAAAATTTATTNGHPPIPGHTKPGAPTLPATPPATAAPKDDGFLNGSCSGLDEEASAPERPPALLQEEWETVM
Protocol: (§1) Receptor binding assays were carried out in canine renal plasma membranes and in UMR 106-H5 rat osteosarcoma cells as previously described in detail (Ref. 14,32), using ^125 I-labeled PTH(1-34)amide as the radioligand. Binding potency (IC50) was quantified as the concentration of unlabeled peptide required for half-maximal displacement of the radioligand. […] Adenylate cyclase activity was assessed in canine renal membranes by the conversion of [α-32p ] ATP to [^32 P] cyclic AMP, essentially as described, except for the addition of 100 micromolar GTP (Ref. 33,34). Adenylate cyclase activity in UMR 106-H5 cells was assessed essentially as described (Ref. 35). In brief, cells were incubated with [3H]adenine 1 micro Ci/ml of serum-free MEM for two hours at 37° C. to label the endogenous ATP pool. Cells were then exposed to 0.4 mM IBMX for 10 min, followed by the appropriate peptide for an additional 10 min at ambient temperature. The cells are then scraped in 20% TCA, and [3H]cyclic AMP is isolated by the column procedure of Salomon et al. (Ref. 36). Potency in the adenylate cyclase assays (Ka) is the concentration of peptide producing half-maximal enzyme activation.

[2] = biological target: T2, PTH receptor (Rattus norvegicus, UniProt P25961); type: cell-based; conditions: for UMR106-H5 CELLS Rat Bone Activity (AC*): maximally effective dose
T2 construct: endogenous in cells; host or cells: UMR 106-H5 rat osteosarcoma cells
T2 sequence (P25961 27-591): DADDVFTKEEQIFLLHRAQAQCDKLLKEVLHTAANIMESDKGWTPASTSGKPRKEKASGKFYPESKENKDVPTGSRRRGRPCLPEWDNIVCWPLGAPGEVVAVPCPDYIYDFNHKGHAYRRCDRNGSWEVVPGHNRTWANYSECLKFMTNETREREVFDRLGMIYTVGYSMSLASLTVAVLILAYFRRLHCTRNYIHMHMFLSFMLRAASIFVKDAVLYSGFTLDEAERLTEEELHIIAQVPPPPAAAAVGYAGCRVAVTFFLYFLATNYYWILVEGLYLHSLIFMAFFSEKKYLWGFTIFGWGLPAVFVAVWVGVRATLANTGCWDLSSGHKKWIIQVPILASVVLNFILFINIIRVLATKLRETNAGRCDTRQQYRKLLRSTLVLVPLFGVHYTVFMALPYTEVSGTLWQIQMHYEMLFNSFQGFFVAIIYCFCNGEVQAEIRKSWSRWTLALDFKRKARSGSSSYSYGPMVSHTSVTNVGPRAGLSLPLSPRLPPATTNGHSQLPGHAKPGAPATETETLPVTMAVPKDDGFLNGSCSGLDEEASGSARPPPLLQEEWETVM
Protocol: as §1, with “Assays were conducted using […] cells. These assays were performed as described in Cohen et al. (1991), J. Biological Chem., 266(3), 1997 and in the Experimental section, e.g. Example 11. Receptor” for “Receptor”

[3] = biological target: T1, PTH receptor; type: binding, canine
Protocol: as §1

[4] = biological target: T2, PTH receptor; type: binding
Protocol: as §1

[5] = biological target: T3, PTH receptor (Homo sapiens, UniProt Q03431); type: cell-based; parameters: In intact rat (UMR-106) and human (SaOS-2) bone cell lines; endogenous in cells; host or cells: SaOS-2 human bone (osteosarcoma) cells
T3 sequence (Q03431 27-593): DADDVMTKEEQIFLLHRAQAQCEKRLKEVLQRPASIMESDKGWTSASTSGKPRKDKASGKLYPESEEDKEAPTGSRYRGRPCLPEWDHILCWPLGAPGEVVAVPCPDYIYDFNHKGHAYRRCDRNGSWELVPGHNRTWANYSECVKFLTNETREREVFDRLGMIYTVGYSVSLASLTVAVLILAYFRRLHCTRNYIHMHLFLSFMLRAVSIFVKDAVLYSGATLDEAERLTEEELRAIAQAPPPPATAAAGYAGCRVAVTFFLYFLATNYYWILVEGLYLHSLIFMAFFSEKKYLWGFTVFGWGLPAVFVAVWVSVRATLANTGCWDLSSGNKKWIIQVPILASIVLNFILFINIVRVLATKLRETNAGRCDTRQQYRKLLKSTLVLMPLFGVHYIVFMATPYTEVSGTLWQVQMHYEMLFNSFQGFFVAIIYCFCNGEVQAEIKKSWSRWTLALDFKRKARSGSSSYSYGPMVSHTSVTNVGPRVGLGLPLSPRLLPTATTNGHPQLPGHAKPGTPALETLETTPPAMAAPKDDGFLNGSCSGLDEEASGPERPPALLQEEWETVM
Excerpt: The renal membrane assay values listed reflect the effect of the polypeptide analogue with kidney tissue receptors. The UMR-106-H5 assay values reflect the effect of the peptide analogue with rat bone tissue receptors. The Sa05-2 assay values reflect the effect of the peptides for human bone tissue receptors.

[6] = Circular dichroism: alpha-helical content; type: physicochemical; conditions: for % HELIX TFE (30%) / % HELIX TFE (0%): Table 1, CD; for % HELIX TFE (30%): 30% trifluoroethanol; for % HELIX TFE (0%): absence of trifluoroethanol
Protocol: Far ultraviolet circular dichroism (CD) spectra were obtained in phosphate buffer (ph 7.0) at 25±1° C. in a 1.0 mm cell on an Instruments SA Jobin Yvon circular dichrograph calibrated with (+) 10-camphorsulfonic acid and epiandosterone. Peptides were analyzed at concentrations ranging from 0.1-0.3 mg/ml. The mean molar ellipticity per residue at 222 nm ([⊖]222 nm-, deg cm^2 /dmol) was used to derive estimates of alpha-helicity according to the method of Taylor and Kaiser (ref. 29).

[7] = Table 1, relative to bPTH(1-34) = 100%
[8] = Table 1, half-maximal enzyme activation, relative to bPTH(1-34) = 100%

Row | Compound | RENAL MEMBRANES Canine Activity (AC*) [1, 7] | UMR106-H5 CELLS Rat Bone Activity (AC*) [2, 7] | RENAL MEMBRANES Canine Potency (AC) [1, 8] | % HELIX TFE (30%) [6] | % HELIX TFE (0%) [6] | UMR106-H5 CELLS Rat Bone Potency (AC) [2, 7] | RENAL MEMBRANES Canine Potency (B) [3, 7] | UMR106-H5 CELLS Rat Bone Potency (B) [4, 7] | also measured
1 | CC[C@H](C)[C@H](NC(=O)[C@H](CCC(=O)O)NC(=O)[C@H](CO)NC(=O)[C@@H](NC(=O)[C@H](C)N)C(C)C)C(=O)N[C@@H](CCC(N)=O)C(=O)N[C@@H](Cc1ccccc1)C(=O)N[C@@H](CCSC)C(=O)N[C@@H](Cc1c[nH]cn1)C(=O)N[C@@H](CC(N)=O)C(=O)N[C@@H](CC(C)C)C(=O)NCC(=O)N[C@@H](CCCCN)C(=O)N[C@@H](Cc1c[nH]cn1)C(=O)N[C@@H](CC(C)C)C(=O)N[C@@H](CO)C(=O)N[C@@H](CO)C(=O)N[C@@H](CCSC)C(=O)N[C@@H](CCC(=O)O)C(=O)N[C@@H](CCCNC(=N)N)C(=O)N[C@H](C(=O)N[C@@H](CCC(=O)O)C(=O)N[C@@H](Cc1c[nH]c2ccccc12)C(=O)N[C@@H](CC(C)C)C(=O)N[C@@H](CCCNC(=N)N)C(=O)N[C@@H](CCCCN)C(=O)N[C@@H](CCCCN)C(=O)N[C@@H](CC(C)C)C(=O)N[C@@H](CCC(N)=O)C(=O)N[C@@H](CC(=O)O)C(=O)N[C@H](C(=O)N[C@@H](Cc1c[nH]cn1)C(=O)N[C@@H](CC(N)=O)C(=O)N[C@@H](Cc1ccccc1)C(=O)O)C(C)C)C(C)C [bPTH (1-34), bPTH(1-34), reference compound] | 100% | 100% | – | – | – | – | – | – | RENAL MEMBRANES Canine Potency (AC) [1]: 100%; UMR106-H5 CELLS Rat Bone Potency (AC) [2]: 100%; RENAL MEMBRANES Canine Potency (B) [3]: 100%; UMR106-H5 CELLS Rat Bone Potency (B) [4]: 100%
2 | [Ala^6 ]bPTH(1-34) | – | – | – | – | – | – | – | – | potency in human bone cells versus renal membranes ([5]; human bone cells and renal membranes): equipotent
3 | [Glu^3 ]bPTH(1-34) | – | – | – | – | – | – | – | – | calculated alpha-helical content ([6]; aqueous solvent conditions): 19%; retention of binding potency / receptor binding activity ([3]; relative to bPTH(1-34), similar in the kidney and bone systems): less than 0.1%
4 | [His^3 ]bPTH(1-34) | 100% | 100% | 2.5% | 84% | 35% | 75% | 55% | 9% | potency for adenylate cyclase activation compared with renal adenylate cyclase ([2]; UMR-106-H5 cells): increased potency
5 | [Lys^3 ]bPTH(1-34) | 78% | 95% | 1.5% | 81% | 29% | 14% | 14% | 3.5% | SAOS2 CELLS Human Bone Activity (AC) [5, 7]: 100%; SAOS2 CELLS Human Bone Potency (AC) [5, 7]: 20%; bioactivity in bone cell assays versus kidney ([2]; both bone cell assays): enhanced bioactivity
6 | [Phe^3 ]bPTH(1-34) | – | – | – | – | – | – | – | – | antagonism of PTH-stimulated adenylate cyclase [1]: partial PTH antagonists
7 | [Phe^6 ]bPTH(1-34) | – | – | – | – | – | – | – | – | antagonism of PTH-stimulated adenylate cyclase [1]: inhibition; antagonism of PTH-stimulated adenylate cyclase ([1]; listed as [Phe^6 ]PTH(1-34)): partial PTH antagonists; binding activity retained, of the activity of bPTH(1-34) ([3]; renal membranes): 1%; binding activity retained, of the activity of bPTH(1-34) ([4]; osteosarcoma cells): 4%
8 | [Tyr^3 ]bPTH(1-34) | 28% | 100% | 1.2% | 99% | 34% | 2.5% | 2% | 0.9% | agonist behaviour in the adenylate cyclase assay ([1]; both the bone and kidney systems): partial agonist activity; activity in adenylate cyclase compared with renal adenylate cyclase ([2]; UMR-106-H5 cells): increased activity
